Reference: patent US20220127232A1, “HISTONE ACETYLTRANSFERASE MODULATORS AND COMPOSITIONS AND USES THEREOF” (The Trustees of Columbia University in the City of New York, priority 2019, published 2022)
“Also recorded” adds a separate entry of the source. Read-outs that look alike come from different tables or passages of the source.

Columns and labels:
[1] = cited from earlier work
[2] = system: hippocampal slices from WT mice; assay: Long-term potentiation (LTP) in hippocampal slices perfused with oTau or oAβ; format: cell-based; conditions: slices perfused with compound and either oTau (50 nM) or oAβ (200 nM)
Text: Synaptic dysfunction is a major hallmark of AD (Histol Histopathol, 1995. 10(2): p. 509-19; herein incorporated by reference in its entirety). An aspect of the drug screening protocol can include a measurement of the effect of compounds onto synaptic function. Amyloid-beta (Aβ) is a toxic peptide that is thought to underlie subtle amnesic changes occurring at early stages of Alzheimer's disease. It impairs both memory and its electrophysiological surrogate, long-term potentiation (LTP). LTP can be examined because it is a type of synaptic plasticity thought to underlie learning and memory. RA010115 can rescue the Aβ-induced reduction of LTP, and other compounds can also be screened to identify those that can re-establish normal LTP. The compounds can be applied for 20 min. Controls can be performed on slices in the absence of Aβ, and mice treated with compound. Tau is another peptide that is involved in cell to cell communication, and impairs both memory and LTP in animal models of AD and other tauopathies. FIG. 26 is a graph showing that RA010115 rescues oligomeric Tau (oTau)- and oligomeric Aβ (o Aβ)-induced LTP deficits. LTP was impaired in hippocampal slices from WT mice perfused with oTau (50 nM) and oAβ (200 nM), whereas there was no impairment in slices treated with RA10115 or vehicle. LTP was restored in slices perfused with RA010115 and either oTau or oAβ. The horizontal solid bar represents oAβ and oTau perfusion while the horizontal dashed bar represents RA010115. The three arrows correspond to the theta-burst stimulation. […]

[3] = biological target: p300 (Homo sapiens, UniProt Q09472); assay: Histone Acetyltransferase (HAT) in vitro acetylation assay, western blot of H3K27ac / H3K18ac; format: biochemical; conditions: compound in DMSO, EC50 for activators
p300, sequence (Q09472 whole entry, species assumed): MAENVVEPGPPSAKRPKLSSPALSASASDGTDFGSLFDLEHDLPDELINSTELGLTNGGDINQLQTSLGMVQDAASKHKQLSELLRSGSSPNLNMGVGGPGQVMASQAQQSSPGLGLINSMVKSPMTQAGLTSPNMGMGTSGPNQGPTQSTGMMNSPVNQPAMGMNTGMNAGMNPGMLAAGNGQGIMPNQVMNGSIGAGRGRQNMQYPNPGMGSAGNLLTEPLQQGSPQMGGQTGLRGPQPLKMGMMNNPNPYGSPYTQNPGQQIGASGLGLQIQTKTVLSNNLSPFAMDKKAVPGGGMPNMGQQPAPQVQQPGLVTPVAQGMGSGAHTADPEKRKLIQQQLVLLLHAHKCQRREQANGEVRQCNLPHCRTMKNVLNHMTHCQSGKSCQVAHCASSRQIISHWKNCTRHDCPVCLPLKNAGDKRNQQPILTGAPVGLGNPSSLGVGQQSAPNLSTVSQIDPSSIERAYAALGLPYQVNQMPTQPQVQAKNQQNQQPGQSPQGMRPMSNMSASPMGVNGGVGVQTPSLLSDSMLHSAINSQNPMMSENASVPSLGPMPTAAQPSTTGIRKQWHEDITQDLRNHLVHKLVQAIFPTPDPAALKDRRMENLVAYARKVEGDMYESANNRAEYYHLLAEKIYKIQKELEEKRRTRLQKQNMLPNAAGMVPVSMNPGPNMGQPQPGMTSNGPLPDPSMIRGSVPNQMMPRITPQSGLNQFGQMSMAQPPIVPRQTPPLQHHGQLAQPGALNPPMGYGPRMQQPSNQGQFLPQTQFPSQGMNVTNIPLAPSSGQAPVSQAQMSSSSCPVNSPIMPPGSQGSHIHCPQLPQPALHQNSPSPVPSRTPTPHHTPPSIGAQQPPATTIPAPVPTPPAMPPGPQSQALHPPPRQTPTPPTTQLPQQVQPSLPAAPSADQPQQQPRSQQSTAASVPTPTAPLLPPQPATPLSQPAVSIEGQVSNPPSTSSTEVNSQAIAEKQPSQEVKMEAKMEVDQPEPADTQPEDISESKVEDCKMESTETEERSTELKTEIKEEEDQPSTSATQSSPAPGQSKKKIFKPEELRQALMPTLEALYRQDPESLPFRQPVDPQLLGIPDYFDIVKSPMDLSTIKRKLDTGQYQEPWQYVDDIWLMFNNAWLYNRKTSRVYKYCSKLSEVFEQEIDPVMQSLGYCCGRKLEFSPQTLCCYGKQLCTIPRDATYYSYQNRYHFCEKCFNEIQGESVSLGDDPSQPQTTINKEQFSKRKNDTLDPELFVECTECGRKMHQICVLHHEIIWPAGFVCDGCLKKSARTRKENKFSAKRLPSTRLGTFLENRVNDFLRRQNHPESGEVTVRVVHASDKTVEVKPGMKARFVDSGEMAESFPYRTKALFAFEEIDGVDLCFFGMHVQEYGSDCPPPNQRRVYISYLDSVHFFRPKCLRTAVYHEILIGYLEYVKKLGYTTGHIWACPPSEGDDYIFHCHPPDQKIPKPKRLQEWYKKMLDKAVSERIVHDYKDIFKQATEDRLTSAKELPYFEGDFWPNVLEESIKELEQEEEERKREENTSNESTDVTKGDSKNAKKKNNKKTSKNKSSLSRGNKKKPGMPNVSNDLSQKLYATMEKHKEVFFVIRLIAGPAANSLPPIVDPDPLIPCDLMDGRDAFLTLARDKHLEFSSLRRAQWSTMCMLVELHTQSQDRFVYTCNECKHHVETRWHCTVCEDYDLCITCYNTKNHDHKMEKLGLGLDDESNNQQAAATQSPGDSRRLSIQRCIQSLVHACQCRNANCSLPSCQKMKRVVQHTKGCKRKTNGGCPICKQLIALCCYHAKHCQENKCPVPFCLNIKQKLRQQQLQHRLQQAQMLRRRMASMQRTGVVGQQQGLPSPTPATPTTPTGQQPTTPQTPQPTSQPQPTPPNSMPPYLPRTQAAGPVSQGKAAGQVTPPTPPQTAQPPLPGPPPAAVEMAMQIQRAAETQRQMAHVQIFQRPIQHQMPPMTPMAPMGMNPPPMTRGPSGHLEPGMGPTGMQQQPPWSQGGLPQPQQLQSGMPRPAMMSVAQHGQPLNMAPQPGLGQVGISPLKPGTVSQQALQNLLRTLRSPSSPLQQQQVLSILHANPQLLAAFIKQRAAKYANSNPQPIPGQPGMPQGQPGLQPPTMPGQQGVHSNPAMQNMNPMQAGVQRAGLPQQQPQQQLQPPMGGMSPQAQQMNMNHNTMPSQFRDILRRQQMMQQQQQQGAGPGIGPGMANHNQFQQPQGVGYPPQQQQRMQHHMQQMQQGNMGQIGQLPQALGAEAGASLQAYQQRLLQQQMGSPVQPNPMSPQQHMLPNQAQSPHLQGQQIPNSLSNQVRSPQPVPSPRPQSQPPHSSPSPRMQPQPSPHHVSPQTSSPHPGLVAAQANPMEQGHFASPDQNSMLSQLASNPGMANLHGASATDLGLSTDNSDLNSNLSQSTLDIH
Procedure: The aim of the in vitro acetylation assay is to measure the enzymatic activity of the various compounds towards p300.
First, the drug is prepared:
Second, dilute p300 in AM1 buffer to a concentration of 40 ng/μL (final concentration in the reaction 20 ng/μL). This is accomplished by diluting 1 μL of p300 (at 0.4 μg/μL) into […] of AM1 buffer.
Third, prepare the Master Mix. Prepare the Master Mix in low protein binding tubes (ThermoFisher Cat. No. 90410), 20 μL system.
Incubate reactions at 30° C. for 30 minutes.
Incubate reactions at 30° C. for 1 hour.
Fourth, perform the western blot assay. • Add 6.7 μL of Laemmli Sample Buffer 4× (Bio-Rad Laboratories Cat. No. 161-0737) for each reaction and boil samples at 95° C. for 5 min. • Charge 10 μL for each sample in 2 Tris Glycine 4-15% gels (Bio-Rad Laboratories Cat. No. 456-1086). Running Buffer: Tris-Glycine 1× (pour in the cell up to the writing “2 gels”). • Run at 90 V for 1 hour (until the gel front reaches the green line of cell). • Semi-dry transfer with Trans-Blot® Turbo™ Blotting System from Bio-Rad Laboratories (Trans-Blot® Turbo™ RTA midi PVDF transfer kit Cat. No1704275). • Activate PVDF membrane in methanol for 5 minutes and then wet in Trans-Blot® Turbo™ transfer buffer. • Wet stacks in transfer buffer. • Transfer at 23 V 1.3 A for 7 minutes. • Blocking buffer: 5% Non-Fat milk in TBST (tween 0.1%) 1 hour at room temperature. • Cut the membranes to get Ac-His 3 at 17 kDa and p300 at 300 kDa. • Incubate with primary antibodies overnight at 4° C. • The day after, make 3 washes in TBST (Tween 0.1%) of 10 minutes. • Incubate with secondary antibody at room temperature for 1 hour. • Make 3 washes in TBST (Tween 0.1%) of 5 minutes. • Incubate membranes with ECL (SuperSignal West Dura Extended Duration Substrate from ThermoFisher) for 5 minutes at room temperature. • Acquire the image with ChemiDoc Odyssey Fc 2 minutes.
To detect total H3 (loading control), strip the membranes with Restore™ Western Blot Stripping Buffer according to the manufacturer protocol.
Various compounds were tested for enzymatic activity with respect to Lys 18 and Lys 27. EC50 is indicated for Activators and IC50 for inhibitors respectively.
FIGS. 1A to 25B are graphs showing the lysine residue acetylation as a function of concentration for the compounds set forth in Table 3. The shaded area corresponds to the average values of lysine residue acetylation (continuous line) and their standard error range measured in the absence of compound and DMSO. The number of replicates is represented by “n”.

[4] = Stability in human liver microsomes; format: in vitro ADME
Procedure: Some compounds were tested for stability in human liver microsomes as shown below in Table 2.
Mixed-gender human liver microsomes (Lot #1010420) were purchased from XenoTech. The reaction mixture, minus NADPH, was prepared as described below. The test article was added into the reaction mixture at a final concentration of 1 μM. The control compound, testosterone, was run simultaneously with the test article in a separate reaction. An aliquot of the reaction mixture (without cofactor) was equilibrated in a shaking water bath at 37° C. for 3 minutes. The reaction was initiated by the addition of the cofactor, and the mixture was incubated in a shaking water bath at 37° C. Aliquots (100 μL) were withdrawn at 0, 10, 20, 30, and 60 minutes. Test article and testosterone samples were immediately combined with 400 μL of ice-cold 50/50 acetonitrile (ACN)/H2O containing 0.1% formic acid and internal standard to terminate the reaction. The samples were then mixed and centrifuged to precipitate proteins. All samples were assayed by LC-MS/MS using electrospray ionization. Analytical conditions are outlined in Appendix 1. The peak area response ratio (PARR) to internal standard was compared to the PARR at time 0 to determine the percent remaining at each time point. Half-lives and clearance were calculated using GraphPad software, fitting to a single-phase exponential decay equation.
Liver Microsomes 0.5 mg/mL NADPH (cofactor) 1 mM
Potassium Phosphate, pH 7.4 100 mM
Intrinsic clearance (CLint) was calculated based on CLint=k/P, where k is the elimination constant and P is the protein concentration in the incubation.

SMILES | Solubility [1] | oTau- and oAβ-induced LTP deficits [2] | EC50 ([3]; read-out: H3-Lys 18 EC50) [nM] | EC50 ([3]; read-out: H3-Lys 27 EC50) [nM] | microsomal CLint at 1 μM ([4]; both sexes, human, liver microsomes, pH 7.4, human liver microsomes, 1 μM, read-out: CLint) [µL/min/mg] | half-life at 1 μM ([4]; both sexes, human, liver microsomes, pH 7.4, human liver microsomes, 1 μM, read-out: Half-life) [min] | % Remaining of Initial (n = 1) 0 min ([4]; human liver microsomes, test article 1 μM, 0 min) [%] | % Remaining of Initial (n = 1) 10 min ([4]; human liver microsomes, test article 1 μM, 10 min) [%] | % Remaining of Initial (n = 1) 20 min ([4]; human liver microsomes, test article 1 μM, 20 min) [%] | % Remaining of Initial (n = 1) 30 min ([4]; human liver microsomes, test article 1 μM, 30 min) [%] | % Remaining of Initial (n = 1) 60 min ([4]; human liver microsomes, test article 1 μM, 60 min) [%]
CCOc1ccccc1C(=O)Nc1ccc(Cl)c(C(F)(F)F)c1 [CTB] | insoluble |  |  |  |  |  |  |  |  |  | 
CCCCCCCCCCCCCCCc1cccc(OCC)c1C(=O)Nc1ccc(Cl)c(C(F)(F)F)c1 [CTPB] | insoluble |  |  |  |  |  |  |  |  |  | 
CCOc1cccc(OCCN(C)C)c1C(=O)Nc1ccc(Cl)c(C(F)(F)F)n1 [RA013915] |  | restored; also recorded: rescues | 72.6 | 57.6 | 43.2 | 32.1 | 100 | 79.6 | 63.8 | 52.4 | 27.6
